Earlier results as cited in US10272261B2, “Methods and compositions for treating ocular glaucoma” (Massachusetts Eye and Ear Infirmary, priority 2004, dated 2019).

Tested on: pigmented rabbits
Conditions: pigmented rabbits compared with albino rabbits; cited from earlier work

chloro-aluminum sulfonated phthalocyanine [CASPc]
duration of IOP reduction by ciliary body PDT: lasted a relatively shorter period than that of albino rabbits
